Numbering of substitutions follows the chain as printed. Read-outs that look alike come from different tables or passages of the source.

These results are taken from article PMC8263924 (The Journal of General Physiology, 2021).

Data set [1] addresses T1, Hv1 WT (Homo sapiens, UniProt Q96D96).
T1 sequence (Q96D96 1-273): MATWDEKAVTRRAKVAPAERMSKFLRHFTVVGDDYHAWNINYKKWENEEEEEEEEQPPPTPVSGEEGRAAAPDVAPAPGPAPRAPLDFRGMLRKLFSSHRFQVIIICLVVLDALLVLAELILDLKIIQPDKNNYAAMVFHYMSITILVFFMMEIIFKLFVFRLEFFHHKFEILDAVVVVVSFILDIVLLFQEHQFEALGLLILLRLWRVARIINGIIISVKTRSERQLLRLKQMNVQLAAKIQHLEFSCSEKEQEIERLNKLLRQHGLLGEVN
It is filed as cell-based. To be noted: for Inhibition of Hv1 WT (comparison of potency): compounds tested at 50 µM, Fig. 5 E; for IC50: IC50 ± SE, inside-out patch, +120 mV, pHin = pHout = 6.0.

In another data set the target is T2, Hv1 F150A (Homo sapiens, UniProt Q96D96, F150A).
T2 sequence (Q96D96 1-273 F150A): T1 sequence (Q96D96 1-273) with F150A
Nature of the data set: Inhibition of proton currents, inside-out patch clamp, Hv1 F150A. Type of data set: cell-based. Background: Patch clamp records ionic current or voltage across a cell membrane.

The nature of data set [2]: Solubility in recording solution. It is filed as physicochemical. To be noted: concentrations >1 mM.
The target in data set [3] is T1, Hv1 WT. The settings on record: dimeric Hv1; ref Hong et al., 2015; cited from earlier work.

For `Cc1[nH]c(N)nc1CCC(O)c1cc(F)cc(F)c1.Cl` (stereo not shown) [HIFOH, 3-(2-amino-5-methyl-1H-imidazol-4-yl)-1-(3,5-difluorophenyl)propan-1-ol hydrochloride], the “Inhibition of Hv1 WT (comparison of potency)” value at Hv1 WT [1] is “less effective at reducing the proton current than HIF, HIFNH, and HIFEN”.

For `Nc1nc2cc(F)c(F)cc2[nH]1` [ABIF2, 5,6-difluoro-1H-1,3-benzodiazol-2-amine], the figures for the half-maximal inhibitory concentration (IC50) against Hv1 F150A and on Hv1 WT [1] (Hv1 WT) were 0.012 ± 0.001 µM and 244 ± 19 µM, respectively.

`Nc1nc2c(F)c(F)c(F)cc2[nH]1` [ABIF3, 4,5,6-trifluoro-1H-1,3-benzodiazol-2-amine]: the values for the IC50 against Hv1 F150A and against Hv1 WT [1] (Hv1 WT) were 0.093 ± 0.006 µM and 699 ± 45 µM, respectively. For the same compound, the “Solubility under tested conditions” value in data set [2] is recorded as “not soluble at higher concentrations”.

Regarding `Cc1[nH]c(N)nc1CCC(=O)c1cc(F)cc(F)c1.Cl` [HIF, 3-(2-amino-5-methyl-1H-imidazol-4-yl)-1-(3,5-difluorophenyl)propan-1-one hydrochloride], the “IC50,HIFNF/IC50,HIF” value on Hv1 F150A (Hv1 F150A) was approximately 7.0; on Hv1 WT [1] (Hv1 WT) it was approximately 5.4. At Hv1 WT [1] (Hv1 WT), this compound had a half-inhibitory concentration (IC50) of 13 ± 1 µM.

Regarding `Nc1nc2cc(F)ccc2[nH]1` [ABIFβ, 6-fluoro-1H-1,3-benzodiazol-2-amine], the IC50 worked out at 0.013 ± 0.001 µM at Hv1 F150A and 312 ± 17 µM at Hv1 WT [1] (Hv1 WT).

For the compound `Nc1nc2c(F)cccc2[nH]1` [ABIFα, 4-fluoro-1H-1,3-benzodiazol-2-amine], the IC50 against Hv1 F150A was 0.04 ± 0.001 µM; at Hv1 WT [1] (Hv1 WT), 729 ± 56 µM.

Regarding `Cc1[nH]c(N)nc1/C=C/C(=O)c1cc(F)cc(F)c1.Cl` [HIFEN, (2E)-3-(2-amino-5-methyl-1H-imidazol-4-yl)-1-(3,5-difluorophenyl)prop-2-en-1-one hydrochloride], at Hv1 WT [1] (Hv1 WT (dimeric), fit with Hill equation), the “h ± SE (Hill coefficient)” value was approximately 1.5. Further, on Hv1 WT [1] (50 µM), the “Inhibition of Hv1 WT (comparison of potency)” value was “slightly more potent than HIF”.

Consider `N=C(N)Nc1nc2ccccc2s1` [GBTA, 2-guanidino-benzothiazole], for which the Hill coefficient at Hv1 WT [3] is listed as more than 1.

Take `Nc1nc2ccccc2[nH]1` [ABI, 2-aminobenzimidazole]: the IC50 worked out at 0.018 ± 0.001 µM at Hv1 F150A and 553 ± 43 µM against Hv1 WT [1] (Hv1 WT). The “Inhibition of Hv1 F150A (comparison with ABTA)” value on Hv1 F150A (ABI at 100 nM versus ABTA at 500 nM) is listed as “much larger inhibition than ABTA”. On Hv1 F150A (at 500 nM), the “Inhibition of Hv1 F150A” value is “saturated”.

`Cc1[nH]c(N)nc1CCC(=O)c1ccccc1.Cl` [HIFNF, 3-(2-amino-5-methyl-1H-imidazol-4-yl)-1-phenylpropan-1-one hydrochloride]: the “IC50,ABI/IC50,HIFNF” value is given as approximately 0.05 at Hv1 F150A (Hv1 F150A) and approximately 7.7 against Hv1 WT [1] (Hv1 WT).

The term IC50 denotes the concentration that inhibits the measured activity by half. Low readings indicate higher potency, high ones lower potency. Usually Hill coefficient stands for a measure of the steepness of the concentration-response curve.
